Test results reported in the supplement of paper PMC6045584.
± gives the standard deviation of the averaged measurements.

Experiments:
METHOTREXATE = compound: CN(Cc1cnc2nc(N)nc(N)c2n1)c1ccc(C(=O)N[C@@H](CCC(=O)O)C(=O)O)cc1 [METHOTREXATE]; experiment: surviving fraction relative to DMSO-only wells; higher = less growth inhibition; settings: exposure time: 5 days
Method in brief: (§1)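 Inhibitors were tested at 0.5, 1, 5, 10, 50, 100, 500 and 1000 nM, applied continuously for five days beginning 24 hours after log-phase tumour cells were seeded at 250–500 per well in 384-well plates. CellTiter-Glo luminescence served as the viability measure, expressed as surviving fraction against the median of DMSO-only wells. Each line, screened three times, was kept only with replicate Pearson r >0.7 and median Z' >0.3.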

PLX-4720 = compound: CCCS(=O)(=O)Nc1ccc(F)c(C(=O)c2c[nH]c3ncc(Cl)cc23)c1F [PLX-4720]; experiment: as above; settings: exposure time: 5 days
Method in brief: as §1

Row | Test System | surviving fraction (METHOTREXATE; 0.5 nM) | surviving fraction (METHOTREXATE; 1 nM) | surviving fraction (METHOTREXATE; 5 nM) | surviving fraction (METHOTREXATE; 10 nM) | surviving fraction (METHOTREXATE; 50 nM) | surviving fraction (METHOTREXATE; 100 nM) | surviving fraction (METHOTREXATE; 500 nM) | surviving fraction (METHOTREXATE; 1000 nM) | surviving fraction (PLX-4720; 0.5 nM) | surviving fraction (PLX-4720; 1 nM) | surviving fraction (PLX-4720; 5 nM) | surviving fraction (PLX-4720; 10 nM) | surviving fraction (PLX-4720; 50 nM) | surviving fraction (PLX-4720; 100 nM) | surviving fraction (PLX-4720; 500 nM) | surviving fraction (PLX-4720; 1000 nM)
1 | MDAMB361 BREAST | 0.85 ± 0.13 | 0.853 ± 0.073 | 0.8 ± 0.015 | 0.889 ± 0.062 | 0.947 ± 0.082 | 0.879 ± 0.037 | 0.74 ± 0.045 | 0.735 ± 0.075 | 0.888 ± 0.076 | 0.865 ± 0.035 | 0.8033 ± 0.0065 | 0.792 ± 0.035 | 0.991 ± 0.074 | 0.918 ± 0.097 | 0.96 ± 0.097 | 0.86 ± 0.078
2 | MDAMB436 BREAST | 0.955 ± 0.13 | 0.977 ± 0.091 | 0.963 ± 0.12 | 0.857 ± 0.024 | 0.677 ± 0.096 | 0.609 ± 0.057 | 0.65 ± 0.14 | 0.687 ± 0.083 | 0.754 ± 0.019 | 0.831 ± 0.092 | 0.837 ± 0.052 | 0.821 ± 0.024 | 0.9 ± 0.096 | 0.943 ± 0.066 | 0.901 ± 0.062 | 0.909 ± 0.1
3 | MDAMB453 BREAST | 1.04 ± 0.088 | 1.06 ± 0.025 | 1.12 ± 0.068 | 1.04 ± 0.038 | 0.966 ± 0.024 | 0.757 ± 0.028 | 0.655 ± 0.039 | 0.66 ± 0.018 | 0.963 ± 0.054 | 1.01 ± 0.048 | 1.04 ± 0.071 | 1.01 ± 0.044 | 0.977 ± 0.075 | 1.03 ± 0.083 | 1.03 ± 0.044 | 1.03 ± 0.042
4 | MDAMB468 BREAST | 1.12 ± 0.046 | 1.09 ± 0.072 | 1.11 ± 0.042 | 1.12 ± 0.025 | 0.263 ± 0.015 | 0.083 ± 0.0027 | 0.0627 ± 0.0057 | 0.065 ± 0.001 | 0.827 ± 0.026 | 0.828 ± 0.0072 | 0.895 ± 0.028 | 0.928 ± 0.024 | 1.04 ± 0.03 | 1.08 ± 0.037 | 0.961 ± 0.045 | 0.924 ± 0.025
5 | MFM223 BREAST | 1.18 ± 0.11 | 1.3 ± 0.3 | 1.35 ± 0.41 | 1.41 ± 0.43 | 1.09 ± 0.096 | 0.98 ± 0.046 | 1.04 ± 0.035 | 1.01 ± 0.018 | 0.709 ± 0.032 | 0.758 ± 0.066 | 0.691 ± 0.098 | 0.754 ± 0.057 | 0.97 ± 0.11 | 1.01 ± 0.062 | 0.981 ± 0.025 | 1.01 ± 0.11
6 | MG63 BONE | 1.05 ± 0.051 | 1.07 ± 0.047 | 1.11 ± 0.042 | 1.1 ± 0.052 | 0.364 ± 0.016 | 0.197 ± 0.0027 | 0.178 ± 0.01 | 0.17 ± 0.0082 | 0.875 ± 0.01 | 0.884 ± 0.025 | 0.926 ± 0.016 | 0.937 ± 0.016 | 0.941 ± 0.012 | 0.958 ± 0.015 | 0.933 ± 0.013 | 0.963 ± 0.033
7 | MHM BONE | 1.02 ± 0.036 | 1.04 ± 0.044 | 1.05 ± 0.078 | 1.06 ± 0.038 | 0.784 ± 0.016 | 0.723 ± 0.04 | 0.689 ± 0.019 | 0.699 ± 0.01 | 0.9713 ± 0.0025 | 0.96 ± 0.016 | 1 ± 0.023 | 1.02 ± 0.021 | 0.97 ± 0.022 | 1.01 ± 0.031 | 0.949 ± 0.0092 | 1.01 ± 0.038
8 | NCIH441 LUNG | 1.15 ± 0.12 | 1.14 ± 0.099 | 1.12 ± 0.023 | 1.11 ± 0.062 | 1.04 ± 0.12 | 0.882 ± 0.067 | 0.882 ± 0.11 | 0.855 ± 0.1 | 0.899 ± 0.056 | 0.906 ± 0.072 | 0.919 ± 0.1 | 0.965 ± 0.016 | 0.933 ± 0.045 | 0.968 ± 0.025 | 0.961 ± 0.044 | 0.898 ± 0.085
9 | NOS1 BONE | 1.07 ± 0.13 | 1.05 ± 0.12 | 1.16 ± 0.08 | 1.15 ± 0.041 | 1.26 ± 0.25 | 1.4 ± 0.33 | 1.19 ± 0.13 | 1.12 ± 0.06 | 0.85 ± 0.15 | 1 ± 0.11 | 0.961 ± 0.069 | 0.994 ± 0.2 | 1.17 ± 0.059 | 1.25 ± 0.12 | 1.11 ± 0.12 | 0.911 ± 0.057
